Laboratory results taken from patent US9714247B2, “Multiple kinase pathway inhibitors” (Mannkind Corporation, priority 2012, dated 2017).
Where two headings read alike, the source gives them in different places.

Tests used:
Ramos [1] = experiment: CellTiter-Glo proliferation/viability assay; type: cell-based, human
[2] = system: phosphorylation of SFKs in Ramos cells; experiment: SFK phosphorylation (Tyr 416) by Western blotting; type: cell-based, human; conditions: pretreated 2 hours
Method: Ramos cell lysates from stimulated and unstimulated cells were analyzed for the levels of phosphorylated SRC family members. As described in Example 82 (above), cells were pretreated for 2 hours with an amino naphthyridinones and then stimulated with anti-IgM antibody and H2O2, protein lysates were prepared, quantified and used for Western blotting. A commercially available antibody that detects Src phosphorylated at Tyr 416 (Cell Signalling) and may cross-react with other Src family members such as Lyn, Fyn, Lck, Yes and Hck when phosphorylated at equivalent sites was used for Western blot analysis. The molecular weights of SFK family members are quite similar (in the 55-60 kDa range) and different family members cannot be resolved by the conditions used for the Western blot. […] The procedure can be similarly adapted for flow cytometric analysis as with the PLC-γ2 assay in Example 82. Ramos cells were incubated with Compound 1 for 2 hrs in RPMI media with 5% FBS prior to stimulation stimulated with H2O2/anti-IgM/F(Ab) for 10 minutes. Cells were evaluated by FACS analysis using anti-pSRC antibody and FITC-conjugated goat anti-rabbit secondary antibody following overnight storage at 4° C. in BD perm/wash buffer.

[3] = system: PLCγ2 phosphorylation in Ramos cells; experiment: PLCγ2 phosphorylation by flow cytometry; type: cell-based, human; conditions: Homo sapiens, flow cytometry; for inhibition at 0.3 µM: anti-phospho PLCγ2 (Tyr759), read-out: pPLCγ % inhibition
Method in brief: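 Ramos cells starved 18 h in 1% FBS, pretreated with inhibitor 2 h, then stimulated with anti-IgM (10 ug/ml final) plus 3.3 mM H2O2 for 2 min, then cross-linking F(ab) (10 ug/ml) plus H2O2 for 8 min. Fixed, permeabilized cells stained with PE anti-phospho-PLCγ2 (Tyr1217 or Tyr759), dead cells gated out; ED50 from geometric mean fluorescence over four inhibitor concentrations.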

Lyn [4] = target: T1, Lyn (Homo sapiens (Human), UniProt P07948); conditions: read-out: Lyn IC50
T1 sequence (P07948 whole entry): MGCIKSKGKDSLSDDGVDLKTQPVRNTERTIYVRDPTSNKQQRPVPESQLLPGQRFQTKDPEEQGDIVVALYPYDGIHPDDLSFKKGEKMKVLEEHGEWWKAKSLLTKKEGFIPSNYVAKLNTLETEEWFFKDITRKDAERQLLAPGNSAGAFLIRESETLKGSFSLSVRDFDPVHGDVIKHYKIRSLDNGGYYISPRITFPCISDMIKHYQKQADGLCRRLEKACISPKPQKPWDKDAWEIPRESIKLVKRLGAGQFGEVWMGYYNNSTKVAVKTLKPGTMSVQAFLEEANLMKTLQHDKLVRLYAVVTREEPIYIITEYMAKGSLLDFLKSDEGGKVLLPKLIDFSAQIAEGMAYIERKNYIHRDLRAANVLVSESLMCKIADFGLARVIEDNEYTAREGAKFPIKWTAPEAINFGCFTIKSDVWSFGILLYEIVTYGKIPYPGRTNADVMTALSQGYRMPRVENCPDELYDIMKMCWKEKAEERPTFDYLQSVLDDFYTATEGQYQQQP

Src [5] = target: T2, Src (Homo sapiens (Human), UniProt P12931); experiment: biochemical
T2 sequence (P12931 whole entry, looked up): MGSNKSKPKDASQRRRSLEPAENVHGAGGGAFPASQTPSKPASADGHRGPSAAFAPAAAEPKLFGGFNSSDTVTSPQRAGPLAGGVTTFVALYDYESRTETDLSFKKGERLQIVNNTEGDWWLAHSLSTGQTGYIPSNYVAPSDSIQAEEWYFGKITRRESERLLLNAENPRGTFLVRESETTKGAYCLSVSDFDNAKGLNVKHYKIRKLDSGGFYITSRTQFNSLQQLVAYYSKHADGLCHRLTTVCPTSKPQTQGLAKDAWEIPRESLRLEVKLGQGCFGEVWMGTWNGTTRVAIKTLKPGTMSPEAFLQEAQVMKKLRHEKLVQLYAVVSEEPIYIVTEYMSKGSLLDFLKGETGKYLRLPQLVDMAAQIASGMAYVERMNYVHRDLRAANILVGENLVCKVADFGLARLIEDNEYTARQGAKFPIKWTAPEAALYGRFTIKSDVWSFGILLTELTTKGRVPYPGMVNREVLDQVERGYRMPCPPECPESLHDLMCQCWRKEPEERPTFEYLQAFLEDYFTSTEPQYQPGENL

Lyn [6] = target: T1, Lyn; experiment: biochemical
[7] = system: PLCγ2 phosphorylation in Ramos cells; experiment: PLCγ2 phosphorylation by Western blotting; type: cell-based, human; conditions: anti-IgM/H2O2 stimulation, Tyr1217
Method: Ramos cells were cultured in RPMI 1640 media with 10% FBS and were starved overnight (18 h) in 1% FBS containing media and on the next day pretreated with inhibitor for 2 h before stimulation. Cells were stimulated to induce BTK network dependent signal transduction pathways using mouse anti-human IgM (final concentration 10 ug/ml; Invitrogen) antibodies and 3.3 mM H2O2 mixture for 2 minutes followed by F(Ab) fragment that cross-linked the anti-IgM antibody (final concentration 10 ug/ml), and 3.3 mM H2O2 for 8 minutes. Cell lysates were prepared in lysis buffer containing protease and phosphatase inhibitors, quantified using the BCA protein assay kit (Pierce) and used for Western blotting. Antibodies specifically targeted to the molecules of interest, PLCγ2 phosphorylated at Tyr1217 and total PLCγ2, (Cell Signaling Technology) were used in a standard Western blotting procedure.
Phosphorylation of PLCγ2 at Tyr1217 along with Tyr753, Tyr759 and Tyr1197 is correlated with increased PLCγ2 activity. The readout for BTK network signaling was inhibition of phosphorylation of PLCγ2 induced by the anti-IgM treatment.

DoHH2 [8] = experiment: CellTiter-Glo proliferation/viability assay; type: cell-based, human
DoHH2 cells = conditions: treated 24 hours
BTK = BTK (Homo sapiens (Human), UniProt Q06187)
Chain of BTK (Q06187 whole entry): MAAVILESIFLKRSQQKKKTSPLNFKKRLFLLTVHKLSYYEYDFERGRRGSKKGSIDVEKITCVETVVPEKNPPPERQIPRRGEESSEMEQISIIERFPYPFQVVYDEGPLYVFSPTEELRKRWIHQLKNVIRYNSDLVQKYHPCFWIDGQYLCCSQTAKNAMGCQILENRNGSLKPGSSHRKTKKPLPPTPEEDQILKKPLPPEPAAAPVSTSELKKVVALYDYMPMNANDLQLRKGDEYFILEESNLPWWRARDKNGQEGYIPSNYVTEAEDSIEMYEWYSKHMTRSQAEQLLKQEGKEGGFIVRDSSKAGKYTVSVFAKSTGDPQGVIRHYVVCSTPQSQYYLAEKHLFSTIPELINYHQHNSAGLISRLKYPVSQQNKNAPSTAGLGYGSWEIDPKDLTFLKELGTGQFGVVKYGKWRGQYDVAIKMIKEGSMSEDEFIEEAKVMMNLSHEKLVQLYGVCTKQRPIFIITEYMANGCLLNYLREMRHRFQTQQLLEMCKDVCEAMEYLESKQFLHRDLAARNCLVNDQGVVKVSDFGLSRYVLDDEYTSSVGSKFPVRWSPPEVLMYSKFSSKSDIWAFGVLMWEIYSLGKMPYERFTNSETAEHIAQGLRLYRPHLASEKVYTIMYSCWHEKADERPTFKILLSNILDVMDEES

[9] = system: phosphorylation of SFKs in Ramos cells; experiment: SFK phosphorylation (Tyr 416) by flow cytometry; type: cell-based, human; conditions: Homo sapiens, 0.3 uM, flow cytometry, SFK phosphorylated at Tyr 416, read-out: pSRC % inhibition
Method in brief: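 Ramos cells pretreated with compound 2 hrs in RPMI with 5% FBS, then stimulated 10 minutes with H2O2/anti-IgM. Phospho-Tyr 416 SFK detected by flow cytometry with an antibody that may cross-react across Src family members, plus fluorescent secondary antibody.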

Src [10] = target: T2, Src; conditions: read-out: Src IC50
RBL-2H3 cells = experiment: Degranulation (β-hexosaminidase release) colorimetric assay; type: cell-based; conditions: Rattus norvegicus, RBL-2H3, IgE / DNP-BSA
Excerpt: Crosslinking of IgE receptors leads to induction of intracellular signal transduction pathways and degranulation of mast cells and basophils leading to the release of histamine, serotonin and cytokines that constitutes an allergic reaction. […] One of the factors secreted on induction of degranulation is β-hexosaminidase. A colorimetric assay using 4-nitrophenyl N-acetyl-3-D-glucosaminide (Sigma-Aldrich) as a substrate was used to estimate the amount of enzyme secreted upon degranulation. In brief, RBL-2H3 (ATCC # CRL 2256) cells were plated overnight in the presence of IgE (monoclonal anti-dinitrophenyl antibody from Sigma-Aldrich). The next day, cells were treated with compounds in cell culture media, washed and treated with DNP-BSA for 1 hour (Sigma-Aldrich) in Tyrodes's buffer to induce degranulation. The level of 3-hexosaminidase was analyzed in cell-free supernates and cell lysates and the amount of β-hexosaminidase released was calculated. EC50 values were generated using varying concentrations of inhibitors. […] Thus amino naphthyridinones can be used to inhibit immunologic functions such as degranulation.

Ramos [11] = conditions: cited from earlier work
PC3 [12] = experiment: Proliferation/viability assay; type: cell-based; conditions: Table 10, Prostate Ca, read-out: Effect on Tumor Cell Growth EC50, PC3
SuDHL6 = experiment: Proliferation/viability assay; type: cell-based; conditions: Table 10, B Lymphoma, read-out: Effect on Tumor Cell Growth EC50, SuDHL6
DoHH2 [13] = conditions: cited from earlier work
PC3 [14] = experiment: Apoptosis by flow cytometry (Annexin V / 7AAD); type: cell-based; conditions: Table 5; positive control, concentration not given
DoHH2 [15] = experiment: Apoptosis by flow cytometry (Annexin V / 7AAD); type: cell-based, human; conditions: Table 5; positive control, concentration not given
Excerpt: Activation of Tec family kinases including BTK, and/or Src kinase family members, regulates cell survival and cell death in normal B cells, lymphomas, and solid tumors. Apoptosis is a programmed cell death characterized by specific changes in cell morphology. […] Staurosporine was used as a positive control for apoptosis. […] Table 6 illustrates that several amino naphthyridinones induce significant apoptosis in DoHH2 cells.

Ramos [16] = experiment: Apoptosis by flow cytometry (Annexin V / 7AAD); type: cell-based, human; conditions: Table 5; positive control, concentration not given
[17] = Homo sapiens, Ramos, 48 hrs, read-out: Ramos EC50
[18] = Homo sapiens, DOHH-2, 48 hrs, read-out: DoHH2 EC50
[19] = Homo sapiens, Ramos, 48 h, read-out: Ramos EC50

EC50 (Ramos [1]; [17]) [µM]	SMILES	IC50 (Lyn [4]) [µM]	EC50 (DoHH2 [8]; [18]) [µM]	IC50 (BTK; read-out: BTK IC50) [µM]	inhibition at 0.3 µM [3] [%]	inhibition at 0.3 µM [9] [%]	IC50 (Src [10]) [µM]	EC50 (RBL-2H3 cells) [µM]	further results
> 10	CCN(CC)CCOc1ccc(Nc2cc3c(cn2)cc(-c2ccccc2)c(=O)n3C2CCOCC2)nc1 [Compound 70, 7-(5-(2-(diethylamino)ethoxy)pyridin-2-ylamino)-3-phenyl-1-(tetrahydro-2H-pyran-4-yl)-1,6-naphthyridin-2(1H)-one]	0.1 to 1	< 1	0.1 to 1	–	–	–	–	Inhibition of phosphorylation of SFKs (Western blot) [2]: dose-dependent decrease of phosphorylation of SFKs; EC50 ([3]; anti-phospho PLCγ2 (Tyr1217), four concentrations, read-out: Inhibition of phosphorylation of PLC-γ2 EC50): 0.33 µM; IC50 (Src [5]): 0.1 to 1 µM; IC50 (Lyn [6]): 0.1 to 1 µM; Inhibition of PLCγ2 phosphorylation (Western blot) [7]: observed this inhibition; EC50 (DoHH2 [8]; Homo sapiens, DOHH-2, Table 4, DoHH2 cells, read-out: EC50 (Proliferation)): < 1 µM; Effect on Cell Cycle (DoHH2 cells): G1 Arrest; IC50 (BTK): 0.1 to 1 µM
1 to 10	CN1CCN(CCn2c(=O)c(-c3c(F)cccc3F)cc3cnc(Nc4ccc(F)cn4)cc32)CC1 [Compound 134, 3-(2,6-difluorophenyl)-7-((5-fluoropyridin-2-yl)amino)-1-(2-(4-methylpiperazin-1-yl)ethyl)-1,6-naphthyridin-2(1H)-one]	< 0.1	< 1	< 0.1	80	44	< 0.1	3.11	–
–	CC(C)n1c(=O)c(-c2c(F)cccc2F)cc2cnc(Nc3ccc(N(C)C4CCN(C)CC4)cn3)cc21 [Compound 137, 3-(2,6-difluorophenyl)-1-isopropyl-7-((5-(methyl(1-methylpiperidin-4-yl)amino)pyridin-2-yl)amino)-1,6-naphthyridin-2(1H)-one]	< 0.1	< 1	< 0.1	98	81	< 0.1	1.14	EC50 (Ramos [1]; [19]): 1 to 10 µM
–	Cc1ccc(NC(=O)c2ccc(CN3CC[C@H](N(C)C)C3)c(C(F)(F)F)c2)cc1Nc1nccc(-c2cncnc2)n1 [Inno-406]	–	–	–	–	–	–	–	EC50 (Ramos [1]; Homo sapiens, Ramos, Table 10, B Lymphoma, read-out: Effect on Tumor Cell Growth EC50, Ramos): 7.3 µM; Resistance of Ramos to known kinase inhibitors (Ramos [11]): resistant; EC50 (PC3 [12]; Homo sapiens, PC-3): > 10 µM; EC50 (DoHH2 [8]; Homo sapiens, DOHH-2, Table 10, B Lymphoma, read-out: Effect on Tumor Cell Growth EC50, DOHH2): 6.9 µM; EC50 (SuDHL6; Homo sapiens, SU-DHL-6): 5.7 µM
–	CN1CCN(CCOc2cc(OC3CCOCC3)c3c(Nc4c(Cl)ccc5c4OCO5)ncnc3c2)CC1 [AZN0530]	–	–	–	–	–	–	–	EC50 (Ramos [1]; Table 10, B Lymphoma, read-out: Effect on Tumor Cell Growth EC50, Ramos): > 10 µM; Resistance of Ramos to known kinase inhibitors (Ramos [11]): resistant; EC50 (PC3 [12]): > 10 µM; EC50 (DoHH2 [8]; Table 10, B Lymphoma, read-out: Effect on Tumor Cell Growth EC50, DOHH2): 2.4 µM; EC50 (SuDHL6): 2.5 µM
–	CCn1c(=O)c(-c2c(F)cccc2F)cc2cnc(Nc3ccc(N(C)C4CCN(C)CC4)cn3)cc21 [Compound 95, 3-(2,6-difluorophenyl)-1-ethyl-7-((5-(methyl(1-methylpiperidin-4-yl)amino)pyridin-2-yl)amino)-1,6-naphthyridin-2(1H)-one]	< 0.1	< 1	< 0.1	87	56	< 0.1	2.22	EC50 (Ramos [1]; [19]): 1 to 10 µM
1 to 10	CCN(CC)CCOc1ccc(Nc2cc3c(cn2)cc(-c2ccc(F)cc2C)c(=O)n3CC)nc1 [Compound 99, 7-((5-(2-(diethylamino)ethoxy)pyridin-2-yl)amino)-1-ethyl-3-(4-fluoro-2-methylphenyl)-1,6-naphthyridin-2(1H)-one]	< 0.1	< 1	< 0.1	83	40	< 0.1	2.99	–
–	Cc1nc(Nc2ncc(C(=O)Nc3c(C)cccc3Cl)s2)cc(N2CCN(CCO)CC2)n1 [dasatinib]	–	–	–	–	–	–	–	Resistance of Ramos to known kinase inhibitors (Ramos [11]): resistant; Response of DoHH2 to known drugs (DoHH2 [13]): responds
–	CN[C@@H]1C[C@H]2O[C@@](C)([C@@H]1OC)n1c3ccccc3c3c4c(c5c6ccccc6n2c5c31)C(=O)NC4 [staurosporine, Staurosporine, reference compound]	–	–	–	–	–	–	–	Percent Apoptosis PC3 (PC3 [14]): 47.16%; Percent Apoptosis DOHH2 (DoHH2 [15]): 95.86%; Percent Apoptosis Ramos (Ramos [16]): 73.74%

SMILES	EC50 (Ramos [1]; [17]) [µM]	IC50 (Lyn [4]) [µM]	EC50 (DoHH2 [8]; [18]) [µM]	IC50 (BTK; read-out: BTK IC50) [µM]	inhibition at 0.3 µM [3] [%]	inhibition at 0.3 µM [9] [%]	IC50 (Src [10]) [µM]	EC50 (RBL-2H3 cells) [µM]	further results
CCn1c(=O)c(-c2c(O)cccc2F)cc2cnc(Nc3ccc(N(C)C4CCN(C)CC4)cn3)cc21 [Compound 120, 1-ethyl-3-(2-fluoro-6-hydroxyphenyl)-7-((5-(methyl(1-methylpiperidin-4-yl)amino)pyridin-2-yl)amino)-1,6-naphthyridin-2(1H)-one]	1 to 10	< 0.1	< 1	< 0.1	87	57	< 0.1	2.22	–
COCCn1c(=O)c(-c2c(F)cccc2F)cc2cnc(Nc3ccc(N(C)C4CCN(C)CC4)cn3)cc21 [Compound 129, 3-(2,6-difluorophenyl)-1-(2-methoxyethyl)-7-((5-(methyl(1-methylpiperidin-4-yl)amino)pyridin-2-yl)amino)-1,6-naphthyridin-2(1H)-one]	1 to 10	< 0.1	< 1	< 0.1	88	66	< 0.1	> 5	–
